Assay results taken from patent US20220260574A1, “METHODS OF DETERMINING THERAPIES BASED ON SINGLE CELL CHARACTERIZATION OF CIRCULATING TUMOR CELLS (CTCS) IN METASTATIC DISEASE” (Epic Sciences, Inc., priority 2017, published 2022).
Read-outs that look alike come from different tables or passages of the source.

Legend:
mCRPC patients [1] = test: Carboplatin therapy in mCRPC patients with high vs low pLST baseline CTCs (PSA response); format: in vivo, human
mCRPC patients [2] = test system: mCRPC patients
mCRPC patients [3] = test: Single CTC sequencing of a 2nd line post taxane patient treated with enzalutamide; format: in vivo, human; conditions: 2nd line post taxane patient with lack of clonal diversity
Source text: Phlebotomy samples were obtained at a Decision Point in management: therapy was chosen by the treating physician. Standard of care collection from 221 mCRPC patients at decision points. Baseline blood draw prior to A, E or T. Followed by PSA, time on drug, radiographic progression free (rPFS) & overall survival (OS). 9225 CTCs identified and characterized phenotypically. 741 CTCs from 31 patients were studied by whole genome CNV for clonality and gene amplifications/deletions. Patients were ranked based on how heterogeneous or diverse the cells were at each decision point. […] After a CTC is phenotypically measured, the coverslip is removed and the individual CTC is aspirated and put into an individual tube. The CTCs are amplified and prepared for sequencing (FIG. 15). Following sequencing informatics were performed to assess clonality and amplification/deletions (FIG. 15). […] Each patient sample was analyzed separately. Single CTC genomic CNV plots were curated individually versus other CTCs in patient sample. Clonality was characterized based on large genomic variations and focal amplifications or deletion of known driver alterations in at least 2 CTCs, for example, two cells from same patient with or without a loss of chromosome 5q or two clones from a patient with and without AR amplification (FIG. 16).

[4] = one 8th line mCRPC patient with 4.3% baseline CTCs as high pLST
[5] = one 10th line mCRPC patient with 96% baseline CTCs as high pLST
[6] = patients without vs with the presence of cell type K

| Compound | 12 week PSA change (mCRPC patients [1]; [4]) | response to carboplatin therapy (mCRPC patients [1]; [4]) | 12 week PSA change (mCRPC patients [1]; [5]) [%] | response to carboplatin therapy (mCRPC patients [1]; [5]) | Time on therapy (Tx) (mCRPC patients [2]; all patients, Abi vs Enza) | overall survival (OS) (mCRPC patients [2]; all patients, Abi vs Enza) | radiographic Progression Free Survival (rPFS) (mCRPC patients [2]; all patients, Enza vs Abi, p=0.025) | HR (hazards of death, overall survival), feature Therapy (mCRPC patients [2]; multivariate cox model, =0 if Abi, =1 if Enza, p 0.4167) | HR (hazards of death, overall survival), feature Cell Type K: Therapy Interaction (mCRPC patients [2]; multivariate cox model, =0 if not K+ and Enza, =1 if K+ and Enza, p 0.0306) | hazards of death, therapy favoured in multivariate cox proportional hazards model (mCRPC patients [2]; patients without the presence of cell type K) | OS (mCRPC patients [2]; patients without the presence of cell type K, Enza vs Abi) | rPFS (mCRPC patients [2]; patients without the presence of cell type K, Enza vs Abi, p=0.006) | OS (mCRPC patients [2]; [6]) | Time on Tx (mCRPC patients [2]; [6]) | rPFS (mCRPC patients [2]; [6]) | response to therapy (mCRPC patients [3]) |
| --- | --- | --- | --- | --- | --- | --- | --- | --- | --- | --- | --- | --- | --- | --- | --- | --- |
| N.N.O=C([O-])C1(C(=O)[O-])CCC1.[Pt+2] [carboplatin] | +2.1% | did not respond | −50.1 | responded | – | – | – | – | – | – | – | – | – | – | – | – |
| CNC(=O)c1ccc(N2C(=S)N(c3ccc(C#N)c(C(F)(F)F)c3)C(=O)C2(C)C)cc1F [enzalutamide] | – | – | – | – | similar | similar | significantly better | 0.6543 | 5.2792 | more favorable | no difference | significantly better | significant improvement | significant improvement | significant improvement | responded |
